Results: patent US20250388575A1, “HETEROBIFUNCTIONAL COMPOUNDS AND METHODS OF TREATING DISEASE” (Halda Therapeutics OpCo, Inc., priority 2022, published 2025)

Tests used:
progesterone receptor = progesterone receptor (Homo sapiens, UniProt P06401); test: PR Human Progesterone NHR Binding (Agonist Radioligand) Assay, [3H]progesterone, T47D cytosol; conditions: 0.5 nM [3H]progesterone, T47D cytosolic fractions, 1 hour at 4° C., legend words it as Kd
Method: Compounds were tested using the PR Human Progesterone NHR Binding (Agonist Radioligand) Assay, Cerep at Eurofins Discovery using a modified version of the protocol from Sarup et al. (Cancer Res 1988; 48:5071-5078). Briefly, cytosolic fractions of T47D cells were incubated with 0.5 nM [^3H]progesterone for 1 hour at 4° C. in the absence or presence of the test compound. Nonspecific binding was determined in the presence of 1 μM promegestone. Reactions were subjected to scintillation counting. Results are expressed as a percent inhibition of the control radioligand specific binding.

androgen receptor = androgen receptor (Homo sapiens, UniProt P10275); test: Assay for binding affinity to androgen receptor ([3H]methyltrienolone radioligand, cell cytosol); conditions: binding to the androgen receptor, 1 nM [3H]methyltrienolone, 24 hr at 4° C.
Method: Fractions of cell cytosol (106 cell/point) were incubated for 24 hr at 4° C. with 1 nM [^3H]methyltrienolone in the absence or presence of the test compound in a buffer containing 25 mM Hepes-Tris (pH 7.4), 1 mM EDTA, 10 mM Na2MoO4, 2 mM DTT, 5 µM triamcinolone acetonide, and 10% glycerol. Nonspecific binding was determined in the presence of 1 μM testosterone. Following incubation, the samples were filtered rapidly under vacuum through glass fiber filters (GF/B, Packard) presoaked with 0.3% PEI and rinsed several times with ice-cold 50 mM Tris-HCl using a 96-sample cell harvester (Unifilter, Packard). The filters were dried then counted for radioactivity in a scintillation counter (Topcount, Packard) using a scintillation cocktail (Microscint 0, Packard). The results are expressed as a percent inhibition of the control radioligand specific binding. The standard reference compound is testosterone, which is tested in each experiment at several concentrations to obtain a competition curve from which its IC50 is calculated.

androgen receptor, sequence (P10275 whole entry, looked up): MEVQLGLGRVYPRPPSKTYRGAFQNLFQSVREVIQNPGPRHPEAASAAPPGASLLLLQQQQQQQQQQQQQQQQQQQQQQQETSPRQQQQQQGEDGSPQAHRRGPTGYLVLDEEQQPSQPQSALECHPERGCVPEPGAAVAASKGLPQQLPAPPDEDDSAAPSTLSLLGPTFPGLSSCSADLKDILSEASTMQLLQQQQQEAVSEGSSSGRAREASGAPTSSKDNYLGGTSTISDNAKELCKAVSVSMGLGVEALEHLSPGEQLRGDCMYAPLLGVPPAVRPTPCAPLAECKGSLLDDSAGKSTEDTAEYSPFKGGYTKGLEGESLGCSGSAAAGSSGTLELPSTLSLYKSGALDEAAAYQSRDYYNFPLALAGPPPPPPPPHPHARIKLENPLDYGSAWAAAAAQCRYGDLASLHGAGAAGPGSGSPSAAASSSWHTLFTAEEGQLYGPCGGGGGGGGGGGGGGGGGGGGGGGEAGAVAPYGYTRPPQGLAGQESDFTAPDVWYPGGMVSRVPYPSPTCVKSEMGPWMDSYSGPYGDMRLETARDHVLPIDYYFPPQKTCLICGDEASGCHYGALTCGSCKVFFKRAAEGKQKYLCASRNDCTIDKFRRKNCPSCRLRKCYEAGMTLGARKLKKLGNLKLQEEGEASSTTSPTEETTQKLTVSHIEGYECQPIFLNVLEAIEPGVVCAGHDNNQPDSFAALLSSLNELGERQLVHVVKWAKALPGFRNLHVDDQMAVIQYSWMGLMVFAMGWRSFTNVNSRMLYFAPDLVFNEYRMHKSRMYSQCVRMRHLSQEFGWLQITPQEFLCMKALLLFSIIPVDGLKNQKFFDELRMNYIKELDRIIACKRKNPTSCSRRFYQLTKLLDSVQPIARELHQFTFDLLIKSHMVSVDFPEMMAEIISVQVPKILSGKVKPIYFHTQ
progesterone receptor, sequence (P06401 whole entry, looked up): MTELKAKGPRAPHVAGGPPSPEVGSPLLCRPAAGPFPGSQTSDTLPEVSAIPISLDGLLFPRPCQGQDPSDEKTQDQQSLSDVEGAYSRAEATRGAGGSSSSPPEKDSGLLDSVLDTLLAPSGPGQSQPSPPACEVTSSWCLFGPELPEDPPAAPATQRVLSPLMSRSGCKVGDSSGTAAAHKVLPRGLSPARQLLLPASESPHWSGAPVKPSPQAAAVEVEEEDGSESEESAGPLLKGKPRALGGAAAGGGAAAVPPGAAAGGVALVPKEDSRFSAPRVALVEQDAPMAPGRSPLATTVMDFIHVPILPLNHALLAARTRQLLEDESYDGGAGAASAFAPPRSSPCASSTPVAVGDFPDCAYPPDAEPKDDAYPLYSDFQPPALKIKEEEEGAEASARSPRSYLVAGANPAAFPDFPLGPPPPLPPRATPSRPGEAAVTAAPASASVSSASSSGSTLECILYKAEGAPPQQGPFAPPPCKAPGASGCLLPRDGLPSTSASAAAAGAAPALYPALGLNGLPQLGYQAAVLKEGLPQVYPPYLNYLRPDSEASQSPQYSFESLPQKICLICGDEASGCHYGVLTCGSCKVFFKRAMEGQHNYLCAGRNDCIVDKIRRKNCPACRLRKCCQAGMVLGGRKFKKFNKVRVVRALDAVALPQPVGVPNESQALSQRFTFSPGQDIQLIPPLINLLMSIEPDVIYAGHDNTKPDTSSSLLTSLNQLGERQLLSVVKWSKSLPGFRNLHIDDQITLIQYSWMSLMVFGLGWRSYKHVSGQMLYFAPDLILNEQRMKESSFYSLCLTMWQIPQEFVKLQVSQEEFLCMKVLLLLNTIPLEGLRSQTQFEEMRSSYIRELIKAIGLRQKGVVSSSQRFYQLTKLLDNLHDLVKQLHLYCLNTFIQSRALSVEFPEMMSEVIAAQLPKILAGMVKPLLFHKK

Structure (SMILES)	Ki (progesterone receptor) [nM]	Kd (androgen receptor) [nM]
CCS(=O)(=O)Nc1ccc(Oc2cccc(OCCOC3CCN(c4ccc(C(=O)N[C@H]5CC[C@H](Oc6ccc(C#N)c(Cl)c6)CC5)nn4)CC3)c2)c(-c2cn(C)c(=O)c3[nH]ccc23)c1 [I-1, N-[4-(3-chloro-4-cyano-phenoxy)cyclohexyl]-6-[4-[2-[3-[4-(ethylsulfonylamino)-2-(6-methyl-7-oxo-1H-pyrrolo[2,3-c]pyridin-4-yl)phenoxy]phenoxy]ethoxy]-1-piperidyl]pyridazine-3-carboxamide]	500 to 2500	
Cn1cc(-c2cc(C(C)(C)O)ccc2Oc2ccc(CCC3CCN(c4ccc(C(=O)N[C@H]5CC[C@H](Oc6ccc(C#N)c(Cl)c6)CC5)nn4)CC3)cc2)c2cc[nH]c2c1=O [I-102]		50 to 500
